The source of these data is article PMC9570328, “Spatial Structure of NanoFAST in the Apo State and in Complex with its Fluorogen HBR-DOM2” (International Journal of Molecular Sciences, 2022).

By Kd is commonly meant a measure of binding affinity in units of concentration.

The target of assay [1] is T1, nanoFAST (Halorhodospira halophila, UniProt P16113, C69G/Y94W/T95M/F96I/D97P/Y98T/Q99S/M100R).
T1 construct: gene pyp; nanoFAST: FAST lacking the first 26 residues (98 amino acids); engineered variant of PYP
T1 sequence (P16113 27-125 C69G/Y94W/T95M/F96I/D97P/Y98T/Q99S/M100R): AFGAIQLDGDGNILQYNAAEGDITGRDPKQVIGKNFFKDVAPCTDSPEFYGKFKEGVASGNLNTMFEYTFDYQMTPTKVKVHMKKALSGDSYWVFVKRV
The assay is described as follows: solution NMR structure of the complex, […] intermolecular NOE distances. The class given is binding. The conditions noted are these: cited from earlier work.

The target of assay [2] is T1, nanoFAST. Nature of the assay: fluorescence titration; weak binding, seen only at […] protein.
A further assay has as its target T2, FAST (Halorhodospira halophila, UniProt P16113, C69G/D97P/F96I/M100R/Q99S/T95M/Y94W/Y98T).
T2 construct: gene pyp; full-length FAST (engineered variant of PYP)
The assay is described as follows: spectrofluorometric titration (Table S1). The class given is binding.

T2 sequence (P16113 whole entry C69G/Y94W/T95M/F96I/D97P/Y98T/Q99S/M100R): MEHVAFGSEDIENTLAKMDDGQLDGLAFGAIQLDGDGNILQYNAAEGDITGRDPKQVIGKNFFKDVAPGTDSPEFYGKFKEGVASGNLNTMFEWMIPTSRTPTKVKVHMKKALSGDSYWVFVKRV

Regarding `COc1cc(/C=C2\SC(=S)NC2=O)c(OC)cc1O` [HBR-DOM2], the Kd on nanoFAST [1] was 850 nM.

As for `COc1cc(O)ccc1/C=C1N=C(/C=C/c2ccncc2)N(C)C\1=O` [N871b], the “fluorescence titration; weak binding, seen only at ~100 μM protein” value at nanoFAST [2] is listed as “N871b is bright when bound to nanoFAST, but its binding affinity is extremely weak”. The molecule `COc1cc(/C=C2\N=C(C)N(C)C2=O)c(OC)cc1O` [N1036] registered an equilibrium dissociation constant (Kd) at FAST of 710 nM. At FAST, `COc1cc(/C=C2N=C(/C=C/c3ccncc3)N(C)C\2=O)c(OC)cc1O` [N1048] displayed a Kd of 150 nM.
